In patent publication US11639350B2, “Heteroaryldihydropyrimidine derivatives and methods of treating hepatitis B infections” (Janssen Pharmaceutica NV, priority 2018, dated 2023):

Legend:
[1] = tested on: HBV; test: HBV inhibitory activity: HBV DNA in the culture medium of HepG2.2.15 cells by q-PCR; type: cell-based; conditions: Hepatitis B virus, HepG2.2.15, 144 h, HepG2.2.15 cells, 6 days of compound treatment, HBV DNA in culture medium by q-PCR, highest concentration 10 μM; read-out: EC50
How it was run: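 HepG2.2.15 cells in 2% FBS medium, 40,000 per well, treated 6 days with compound (medium refreshed once), eight 3-fold dilutions from 10 μM top. HBV DNA extracted from culture medium and quantified by q-PCR; EC50 averaged over repeats. Cytotoxicity run in parallel at 5,000 cells per well, top 100 μM, giving CC50.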

[2] = Cytotoxicity determination in HepG2.2.15 cells (CCK-8); type: cell-based; conditions: human, 6 days of compound treatment, CCK-8, highest concentration 100 μM
How it was run: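 HepG2.2.15 cells seeded at 5,000 cells/well in 2% FBS medium, incubated overnight at 37° C., then treated 6 days with compounds (8 points, 3-fold dilutions, top 100 μM), medium refreshed once midway. CCK-8 added for 2.5 h; A450 read against 630 nm reference; CC50 calculated, averaged over repeats.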

| Structure (SMILES) | EC50 [1] | CC50 at 6 days [2] |
| --- | --- | --- |
| COC(=O)C1=C(C2CCN(S(=O)(=O)[C@H]3C[C@@H](C(C)(C)O)C3)CC2)NC(c2nccs2)=NC1c1ccc(F)cc1Cl (single isomer, unassigned) [Compound 244D, (cis)-Methyl 4-(2-chloro-4-fluorophenyl)-6-(1-((3-(2-hydroxypropan-2-yl)cyclobutyl)sulfonyl)piperidin-4-yl)-2-(thiazol-2-yl)-1,4-dihydropyrimidine-5-carboxylate] | 107 nM | 60000 nM |
| COC(=O)C1=C(C2CCN(S(=O)(=O)c3cnn(CCC(C)(C)O)c3)CC2)NC(c2nccs2)=NC1c1ccc(F)cc1Cl (centres unmarked) [Compound 458, Methyl 4-(2-chloro-4-fluorophenyl)-6-(1-((1-(3-hydroxy-3-methylbutyl)-1H-pyrazol-4-yl)sulfonyl)piperidin-4-yl)-2-(thiazol-2-yl)-1,4-dihydropyrimidine-5-carboxylate] | < 4.6 nM | 15500 nM |
| COC(=O)C1=C(C2CCN(C(=O)CO)CC2)NC(c2nccs2)=NC1c1ccc(F)cc1Cl (centres unmarked) [Compound 122, Methyl 4-(2-chloro-4-fluorophenyl)-6-(1-(2-hydroxyacetyl)-piperidin-4-yl)-2-(thiazol-2-yl)-1,4-dihydropyrimidine-5-carboxylate] | 394 nM | 5100 nM |
| COCCNS(=O)(=O)[C@H]1CC[C@@H](C2=C(C(=O)OC)C(c3ccc(F)c(F)c3Cl)N=C(c3nccs3)N2)CC1 (single isomer, unassigned) [Compound 359B, (cis)-Methyl 4-(2-chloro-3,4-difluorophenyl)-6-(4-(N-(2-methoxyethyl)sulfamoyl)cyclohexyl)-2-(thiazol-2-yl)-1,4-dihydropyrimidine-5-carboxylate] | 55 nM | 10500 nM |
| COC(=O)C1=C(C2CCC(C(=O)O)C2)NC(c2nccs2)=NC1c1cccc(F)c1Cl (centres unmarked) [Compound 77, 3-(6-(2-Chloro-3-fluorophenyl)-5-(methoxycarbonyl)-2-(thiazol-2-yl)-3,6-dihydropyrimidin-4-yl)cyclopentanecarboxylic Acid] | 71 nM | 34200 nM |
| COC(=O)C1=C(C2CCN(S(=O)(=O)[C@H]3C[C@H](C(=O)O)C3)CC2)NC(c2nccs2)=NC1c1ccc(F)c(F)c1Br (relative stereo) [Compound 162, trans-3-((4-(−6-(2-Bromo-3,4-difluorophenyl)-5-(methoxycarbonyl)-2-(thiazol-2-yl)-3,6-dihydropyrimidin-4-yl)piperidin-1-yl)sulfonyl)cyclobutanecarboxylic Acid] | 59 nM | 34500 nM |
| COC(=O)C1=C([C@H]2CC[C@H](C(=O)O)CC2)NC(c2nccs2)=NC1c1ccc(F)cc1Cl (single isomer, unassigned) [Compound 19, trans-4-(6-(2-Chloro-4-fluorophenyl)-5-(methoxycarbonyl)-2-(thiazol-2-yl)-3,6-dihydropyrimidin-4-yl)cyclohexanecarboxylic Acid] | 62 nM | 8700 nM |
| COC(=O)C1=C([C@H]2CC[C@H](S(=O)(=O)NC(C)C)CC2)NC(c2nccs2)=NC1c1ccc(F)c(F)c1Cl (single isomer, unassigned) [Compound 234D, (trans)-methyl 4-(2-chloro-3,4-difluorophenyl)-6-(4-(N-isopropylsulfamoyl)cyclohexyl)-2-(thiazol-2-yl)-1,4-dihydropyrimidine-5-carboxylate] | 13 nM | 4200 nM |
| CNS(=O)(=O)[C@H]1CC[C@H](C2=C(C(=O)OC)C(c3ccc(F)c(F)c3Cl)N=C(c3ncc(F)cc3F)N2)CC1 (single isomer, unassigned) [Compound 168A, methyl 4-(2-chloro-3,4-difluorophenyl)-2-(3,5-difluoropyridin-2-yl)-6-((trans)-4-(N-methylsulfamoyl)cyclohexyl)-1,4-dihydropyrimidine-5-carboxylate] | 6 nM | 12500 nM |
| CCCS(=O)(=O)N[C@H]1CC[C@H](C2=C(C(=O)OC)C(c3ccc(F)cc3Cl)N=C(c3nccs3)N2)CC1 (single isomer, unassigned) [Compound 186A, (trans)-Methyl 4-(2-chloro-4-fluorophenyl)-6-(4-(propyl-sulfonamido)cyclohexyl)-2-(thiazol-2-yl)-1,4-dihydropyrimidine-5-carboxylate] | 97 nM | 83100 nM |
| CCOC(=O)C1=C(C2CCN(S(=O)(=O)[C@H]3C[C@H](C(=O)O)C3)CC2)NC(c2nccs2)=NC1c1ccc(F)c(F)c1Cl (relative stereo) [Compound 370B, (trans)-3-((4-(6-(2-Chloro-3,4-difluorophenyl)-5-(ethoxycarbonyl)-2-(thiazol-2-yl)-3,6-dihydropyrimidin-4-yl)piperidin-1-yl)sulfonyl)cyclobutanecarboxylic Acid] | 4 nM | 23200 nM |
| COC[C@@H](O)CN([C@H]1CC[C@H](C2=C(C(=O)OC)C(c3ccc(F)c(F)c3Cl)N=C(c3nccs3)N2)CC1)S(C)(=O)=O (single isomer, unassigned) [Compound 245D] | 15 nM | 12500 nM |
| COC(=O)C1=C(C2CCN(S(=O)(=O)CCC(=O)O)CC2)NC(c2nccs2)=NC1c1ccc(F)cc1Cl (centres unmarked) [Compound 105, 3-((4-(6-(2-Chloro-4-fluorophenyl)-5-(methoxycarbonyl)-2-(thiazol-2-yl)-3,6-dihydropyrimidin-4-yl)piperidin-1-yl)sulfonyl)propanoic Acid] | 150 nM | 14400 nM |
| COC(=O)C1=C(C2CCN(S(=O)(=O)C[C@H]3CC[C@H](C(=O)O)CC3)CC2)NC(c2nccs2)=NC1c1cccc(F)c1Cl (stereo partly drawn) [Compound 454, (trans)-4-(((4-(6-(2-Chloro-3-fluorophenyl)-5-(methoxycarbonyl)-2-(thiazol-2-yl)-3,6-dihydropyrimidin-4-yl)piperidin-1-yl)sulfonyl)methyl)-cyclohexanecarboxylic Acid] | 37 nM | 12000 nM |
| COCCOCCOCCOCCS(=O)(=O)N1CCC(C2=C(C(=O)OC)C(c3ccc(F)cc3Cl)N=C(c3nccs3)N2)CC1 (centres unmarked) [Compound 460, Methyl 6-(1-(2,5,8,11-tetraoxatridecan-13-ylsulfonyl)piperidin-4-yl)-4-(2-chloro-4-fluorophenyl)-2-(thiazol-2-yl)-1,4-dihydropyrimidine-5-carboxylate] | 8 nM | 19900 nM |
| COC(=O)C1=C(C2CCN(S(=O)(=O)C3CN(CCOC(C)(C)C)C3)CC2)NC(c2nccs2)=NC1c1ccc(F)c(F)c1Cl (centres unmarked) [Compound 248, Methyl 6-(1-((1-(2-(tert-butoxy)ethyl)azetidin-3-yl)sulfonyl)piperidin-4-yl)-4-(2-chloro-3,4-difluorophenyl)-2-(thiazol-2-yl)-1,4-dihydropyrimidine-5-carboxylate] | 56 nM | 3500 nM |
| COC(=O)C1=C(C2CCN(S(=O)(=O)[C@H]3C[C@@H](C(=O)O)C3)CC2)NC(c2nccs2)=NC1c1ccc(F)c(F)c1Cl (relative stereo) [Compound 232D, (cis)-3-((4-(−6-(2-Chloro-3,4-difluorophenyl)-5-(methoxycarbonyl)-2-(thiazol-2-yl)-3,6-dihydropyrimidin-4-yl)piperidin-1-yl)sulfonyl)cyclobutanecarboxylic Acid] | 30 nM | 39600 nM |
| COCCNS(=O)(=O)[C@H]1CC[C@H](C2=C(C(=O)OC)C(c3ccc(F)c(F)c3Cl)N=C(c3nccs3)N2)CC1 (single isomer, unassigned) [Compound 359D, (trans)-methyl 4-(2-chloro-3,4-difluorophenyl)-6-(4-(N-(2-methoxyethyl)sulfamoyl)cyclohexyl)-2-(thiazol-2-yl)-1,4-dihydropyrimidine-5-carboxylate] | 5 nM | 12000 nM |
| COC(=O)C1=C(C2CCCN(S(C)(=O)=O)CC2)NC(c2nccs2)=NC1c1ccc(F)cc1Cl (single isomer, unassigned) [Compound 383A, Methyl 4-(2-chloro-4-fluorophenyl)-6-(1-(methylsulfonyl)azepan-4-yl)-2-(thiazol-2-yl)-1,4-dihydropyrimidine-5-carboxylate] | 87 nM | 32900 nM |
| COCCOCCOCCS(=O)(=O)N1CCC(C2=C(C(=O)OC)C(c3ccc(F)cc3Cl)N=C(c3nccs3)N2)CC1 (centres unmarked) [Compound 459, Methyl 4-(2-chloro-4-fluorophenyl)-6-(1-((2-(2-(2-methoxyethoxy)ethoxy)ethyl)sulfonyl)piperidin-4-yl)-2-(thiazol-2-yl)-1,4-dihydropyrimidine-5-carboxylate] | 41 nM | 93500 nM |
| COC(=O)C1=C([C@H]2CC[C@H](S(=O)(=O)NCC(C)(C)C(=O)OC(C)(C)C)CC2)NC(c2nccs2)=NC1c1ccc(F)c(F)c1Cl (single isomer, unassigned) [Compound 361X, (trans)-methyl 6-(4-(N-(3-(tert-butoxy)-2,2-dimethyl-3-oxopropyl)sulfamoyl)cyclohexyl)-4-(2-chloro-3,4-difluorophenyl)-2-(thiazol-2-yl)-1,4-dihydropyrimidine-5-carboxylate] | 87 nM | > 100000 nM |
| COC(=O)C1=C([C@H]2CC[C@H](N(CC(=O)O)S(C)(=O)=O)CC2)NC(c2nccs2)=NC1c1ccc(F)cc1Cl (relative stereo) [Compound 139, 2-(N-(trans-4-(6-(2-chloro-4-fluorophenyl)-5-(methoxycarbonyl)-2-(thiazol-2-yl)-3,6-dihydropyrimidin-4-yl)cyclohexyl)methylsulfonamido)acetic Acid] | 112 nM | 75600 nM |
